In PubChem BioAssay (NCI):
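Briefly, cells in 96-well plates were exposed to five compound concentrations for 48 h, and endpoints were estimated by linear interpolation. Here, GI50 denotes the concentration required for 50% inhibition of growth. TGI: concentration producing complete growth inhibition.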

Experiments:
Assay in all cases: growth of human tumour cells (NCI), 48 h
MDA-MB-435 = test system: MDA-MB-435
NCI-H460 lung = test system: NCI-H460 lung
HOP-92 NSCLC = test system: HOP-92 NSCLC
BT-549 breast = test system: BT-549 breast
HS 578T breast = test system: HS 578T breast
MALME-3M melanoma = test system: MALME-3M melanoma
HL-60(TB) leukemia = test system: HL-60(TB) leukemia
A498 renal = test system: A498 renal
NCI/ADR-RES ovarian = test system: NCI/ADR-RES ovarian
SNB-19 CNS = test system: SNB-19 CNS
MOLT-4 leukemia = test system: MOLT-4 leukemia
OVCAR-3 ovarian = test system: OVCAR-3 ovarian
SK-MEL-28 melanoma = test system: SK-MEL-28 melanoma
OVCAR-5 ovarian = test system: OVCAR-5 ovarian
HOP-62 NSCLC = test system: HOP-62 NSCLC
SK-MEL-2 melanoma = test system: SK-MEL-2 melanoma
CCRF-CEM leukemia = test system: CCRF-CEM leukemia
RXF 393 renal = test system: RXF 393 renal
SR leukemia = test system: SR leukemia
HT29 colon = test system: HT29 colon
DU-145 prostate = test system: DU-145 prostate
SW-620 colon = test system: SW-620 colon
ACHN renal = test system: ACHN renal
SK-OV-3 ovarian = test system: SK-OV-3 ovarian
MCF7 breast = test system: MCF7 breast
SF-268 CNS = test system: SF-268 CNS
LOX IMVI melanoma = test system: LOX IMVI melanoma
NCI-H226 lung = test system: NCI-H226 lung
A549 NSCLC = test system: A549 NSCLC
HCT-15 colon = test system: HCT-15 colon
MDA-MB-231 breast = test system: MDA-MB-231 breast
SN12C renal = test system: SN12C renal
COLO 205 colon = test system: COLO 205 colon
CAKI-1 renal = test system: CAKI-1 renal
786-0 renal = test system: 786-0 renal
U251 CNS = test system: U251 CNS
K-562 leukemia = test system: K-562 leukemia
TK-10 renal = test system: TK-10 renal
SK-MEL-5 melanoma = test system: SK-MEL-5 melanoma
KM12 colon = test system: KM12 colon
NCI-H522 lung = test system: NCI-H522 lung
UO-31 renal = test system: UO-31 renal
UACC-257 melanoma = test system: UACC-257 melanoma
EKVX NSCLC = test system: EKVX NSCLC
HCC-2998 colon = test system: HCC-2998 colon
SNB-75 CNS = test system: SNB-75 CNS
T-47D breast = test system: T-47D breast
NCI-H23 lung = test system: NCI-H23 lung
M14 melanoma = test system: M14 melanoma
UACC-62 melanoma = test system: UACC-62 melanoma
OVCAR-8 ovarian = test system: OVCAR-8 ovarian
IGROV1 ovarian = test system: IGROV1 ovarian
SF-539 CNS = test system: SF-539 CNS
SF-295 CNS = test system: SF-295 CNS
MDA-MB-468 breast = test system: MDA-MB-468 breast
RPMI-8226 leukemia = test system: RPMI-8226 leukemia
OVCAR-4 ovarian = test system: OVCAR-4 ovarian
HCT-116 colon = test system: HCT-116 colon
PC-3 prostate = test system: PC-3 prostate

Question: For `O=C(NNC(=S)NC(=O)c1ccccc1)c1ccc(OCc2nc3ccc(Cl)cc3[nH]2)cc1`, which GI50 (MDA-MB-435) is on record?
Answer: 1.81 µM

Question: And the TGI (MDA-MB-435)?
Answer: 4.37 µM

Question: What about the GI50 (NCI-H460 lung) of the same molecule?
Answer: 1.26 µM

Question: And the TGI (NCI-H460 lung)?
Answer: 3.6 µM

Question: And the GI50 (HOP-92 NSCLC)?
Answer: 2.18 µM

Question: What about the TGI (HOP-92 NSCLC) of the same molecule?
Answer: 6.26 µM

Question: What about the GI50 (BT-549 breast) of the same molecule?
Answer: 1.54 µM

Question: And the TGI (BT-549 breast)?
Answer: 3.14 µM

Question: What about the GI50 (HS 578T breast) of the same molecule?
Answer: 2.17 µM

Question: And the TGI (HS 578T breast)?
Answer: 7.3 µM

Question: What about the GI50 (MALME-3M melanoma) of the same molecule?
Answer: 1.53 µM

Question: And the TGI (MALME-3M melanoma)?
Answer: 3.08 µM

Question: What about the GI50 (HL-60(TB) leukemia) of the same molecule?
Answer: 2.22 µM

Question: And the TGI (HL-60(TB) leukemia)?
Answer: 7.24 µM

Question: What about the GI50 (A498 renal) of the same molecule?
Answer: 1.6 µM

Question: And the TGI (A498 renal)?
Answer: 4.39 µM

Question: And the GI50 (NCI/ADR-RES ovarian)?
Answer: 0.396 µM

Question: What about the TGI (NCI/ADR-RES ovarian) of the same molecule?
Answer: 2.55 µM

Question: And the GI50 (SNB-19 CNS)?
Answer: 2.1 µM

Question: What about the TGI (SNB-19 CNS) of the same molecule?
Answer: 6.68 µM

Question: What about the GI50 (MOLT-4 leukemia) of the same molecule?
Answer: 2.22 µM

Question: What about the TGI (MOLT-4 leukemia) of the same molecule?
Answer: 10.2 µM

Question: And the GI50 (OVCAR-3 ovarian)?
Answer: 1.85 µM

Question: What about the TGI (OVCAR-3 ovarian) of the same molecule?
Answer: 4.55 µM

Question: What about the GI50 (SK-MEL-28 melanoma) of the same molecule?
Answer: 1.65 µM

Question: And the TGI (SK-MEL-28 melanoma)?
Answer: 3.23 µM

Question: What about the GI50 (OVCAR-5 ovarian) of the same molecule?
Answer: 1.8 µM

Question: What about the TGI (OVCAR-5 ovarian) of the same molecule?
Answer: 3.93 µM

Question: And the GI50 (HOP-62 NSCLC)?
Answer: 1.76 µM

Question: What about the TGI (HOP-62 NSCLC) of the same molecule?
Answer: 3.56 µM

Question: And the GI50 (SK-MEL-2 melanoma)?
Answer: 2.08 µM

Question: And the TGI (SK-MEL-2 melanoma)?
Answer: 4.95 µM

Question: What about the GI50 (CCRF-CEM leukemia) of the same molecule?
Answer: 1.44 µM

Question: What about the TGI (CCRF-CEM leukemia) of the same molecule?
Answer: 10.5 µM

Question: And the GI50 (RXF 393 renal)?
Answer: 2.32 µM

Question: What about the TGI (RXF 393 renal) of the same molecule?
Answer: 6.67 µM

Question: And the GI50 (SR leukemia)?
Answer: 2.52 µM

Question: What about the TGI (SR leukemia) of the same molecule?
Answer: 11.7 µM

Question: What about the GI50 (HT29 colon) of the same molecule?
Answer: 3.45 µM

Question: And the TGI (HT29 colon)?
Answer: 13.7 µM

Question: What about the GI50 (DU-145 prostate) of the same molecule?
Answer: 3.02 µM

Question: And the TGI (DU-145 prostate)?
Answer: 15.3 µM

Question: What about the GI50 (SW-620 colon) of the same molecule?
Answer: 1.99 µM

Question: What about the TGI (SW-620 colon) of the same molecule?
Answer: 4.55 µM

Question: What about the GI50 (ACHN renal) of the same molecule?
Answer: 2.04 µM

Question: And the TGI (ACHN renal)?
Answer: 5.82 µM

Question: And the GI50 (SK-OV-3 ovarian)?
Answer: 2.05 µM

Question: And the TGI (SK-OV-3 ovarian)?
Answer: 4.89 µM

Question: And the GI50 (MCF7 breast)?
Answer: 2.91 µM

Question: What about the TGI (MCF7 breast) of the same molecule?
Answer: 17.7 µM

Question: What about the GI50 (SF-268 CNS) of the same molecule?
Answer: 2.42 µM

Question: And the TGI (SF-268 CNS)?
Answer: 12 µM

Question: What about the GI50 (LOX IMVI melanoma) of the same molecule?
Answer: 1.26 µM

Question: What about the TGI (LOX IMVI melanoma) of the same molecule?
Answer: 2.64 µM

Question: What about the GI50 (NCI-H226 lung) of the same molecule?
Answer: 2.02 µM

Question: And the TGI (NCI-H226 lung)?
Answer: 7.82 µM

Question: And the GI50 (A549 NSCLC)?
Answer: 1.99 µM

Question: What about the TGI (A549 NSCLC) of the same molecule?
Answer: 4.49 µM

Question: And the GI50 (HCT-15 colon)?
Answer: 0.567 µM

Question: What about the TGI (HCT-15 colon) of the same molecule?
Answer: 2.13 µM

Question: And the GI50 (MDA-MB-231 breast)?
Answer: 1.71 µM

Question: What about the TGI (MDA-MB-231 breast) of the same molecule?
Answer: 3.37 µM

Question: What about the GI50 (SN12C renal) of the same molecule?
Answer: 1.57 µM

Question: And the TGI (SN12C renal)?
Answer: 3.16 µM

Question: What about the GI50 (COLO 205 colon) of the same molecule?
Answer: 2.66 µM

Question: What about the TGI (COLO 205 colon) of the same molecule?
Answer: 9.34 µM

Question: And the GI50 (CAKI-1 renal)?
Answer: 2.48 µM

Question: What about the TGI (CAKI-1 renal) of the same molecule?
Answer: 9.45 µM

Question: And the GI50 (786-0 renal)?
Answer: 2.05 µM

Question: What about the TGI (786-0 renal) of the same molecule?
Answer: 6.12 µM

Question: And the GI50 (U251 CNS)?
Answer: 1.71 µM

Question: What about the TGI (U251 CNS) of the same molecule?
Answer: 3.46 µM

Question: What about the GI50 (K-562 leukemia) of the same molecule?
Answer: 2.79 µM

Question: And the TGI (K-562 leukemia)?
Answer: > 100 µM

Question: What about the GI50 (TK-10 renal) of the same molecule?
Answer: 4.49 µM

Question: And the TGI (TK-10 renal)?
Answer: 21.2 µM

Question: And the GI50 (SK-MEL-5 melanoma)?
Answer: 1.78 µM

Question: What about the TGI (SK-MEL-5 melanoma) of the same molecule?
Answer: 3.93 µM

Question: And the GI50 (KM12 colon)?
Answer: 1.89 µM

Question: And the TGI (KM12 colon)?
Answer: 4.11 µM

Question: What about the GI50 (NCI-H522 lung) of the same molecule?
Answer: 3.3 µM

Question: And the TGI (NCI-H522 lung)?
Answer: 13.4 µM

Question: What about the GI50 (UO-31 renal) of the same molecule?
Answer: 1.39 µM

Question: And the TGI (UO-31 renal)?
Answer: 4.11 µM

Question: And the GI50 (UACC-257 melanoma)?
Answer: 2.85 µM

Question: And the TGI (UACC-257 melanoma)?
Answer: 10.5 µM

Question: What about the GI50 (EKVX NSCLC) of the same molecule?
Answer: 2.12 µM

Question: What about the TGI (EKVX NSCLC) of the same molecule?
Answer: 5.75 µM

Question: What about the GI50 (HCC-2998 colon) of the same molecule?
Answer: 1.68 µM

Question: And the TGI (HCC-2998 colon)?
Answer: 3.35 µM

Question: What about the GI50 (SNB-75 CNS) of the same molecule?
Answer: 1.48 µM

Question: And the TGI (SNB-75 CNS)?
Answer: 4.78 µM

Question: What about the GI50 (T-47D breast) of the same molecule?
Answer: 3.12 µM

Question: What about the TGI (T-47D breast) of the same molecule?
Answer: 18.6 µM

Question: What about the GI50 (NCI-H23 lung) of the same molecule?
Answer: 1.78 µM

Question: And the TGI (NCI-H23 lung)?
Answer: 3.7 µM

Question: What about the GI50 (M14 melanoma) of the same molecule?
Answer: 1.55 µM

Question: And the TGI (M14 melanoma)?
Answer: 3.79 µM

Question: And the GI50 (UACC-62 melanoma)?
Answer: 1.67 µM

Question: And the TGI (UACC-62 melanoma)?
Answer: 3.11 µM

Question: What about the GI50 (OVCAR-8 ovarian) of the same molecule?
Answer: 2.1 µM

Question: What about the TGI (OVCAR-8 ovarian) of the same molecule?
Answer: 5.07 µM

Question: What about the GI50 (IGROV1 ovarian) of the same molecule?
Answer: 2.18 µM

Question: And the TGI (IGROV1 ovarian)?
Answer: 5.33 µM

Question: What about the GI50 (SF-539 CNS) of the same molecule?
Answer: 1.76 µM

Question: And the TGI (SF-539 CNS)?
Answer: 3.23 µM

Question: And the GI50 (SF-295 CNS)?
Answer: 1.27 µM

Question: And the TGI (SF-295 CNS)?
Answer: 2.98 µM

Question: What about the GI50 (MDA-MB-468 breast) of the same molecule?
Answer: 2.52 µM

Question: And the TGI (MDA-MB-468 breast)?
Answer: 9.45 µM

Question: And the GI50 (RPMI-8226 leukemia)?
Answer: 2.83 µM

Question: And the TGI (RPMI-8226 leukemia)?
Answer: 21.6 µM

Question: And the GI50 (OVCAR-4 ovarian)?
Answer: 2.34 µM

Question: What about the TGI (OVCAR-4 ovarian) of the same molecule?
Answer: 14.8 µM

Question: And the GI50 (HCT-116 colon)?
Answer: 1.52 µM

Question: And the TGI (HCT-116 colon)?
Answer: 3.51 µM

Question: What about the GI50 (PC-3 prostate) of the same molecule?
Answer: 1.79 µM

Question: And the TGI (PC-3 prostate)?
Answer: 4.96 µM
